Values of other authors in paper PMC11286589, “Population pharmacokinetics and exposure–response analyses of SAF-189s in Chinese patients with ALK+/ROS1+ non-small cell lung cancer” (Frontiers in Pharmacology, 2024).

Conditions: cited from earlier work

| Structure (SMILES) | effect on glucose tolerance in patients (current clinical use, ref Camidge et al., 2018, Seto et al., 2019, Wolf et al., 2022) | incidence rate of hyperglycemia (FIH trial, ref Khozin et al., 2015) [%] |
| --- | --- | --- |
| C[C@@H](Oc1cc(-c2cnn(C3CCNCC3)c2)cnc1N)c1c(Cl)ccc(F)c1Cl [crizotinib] | no effects on glucose tolerance | – |
| Cc1cc(Nc2ncc(Cl)c(Nc3ccccc3S(=O)(=O)C(C)C)n2)c(OC(C)C)cc1C1CCNCC1 [ceritinib] | – | 49 |
